Measurements as given in patent US7981460B2, “Substituted benzyl ester derivative and use thereof” (Ajinomoto Co., Inc., priority 2006, dated 2011).
“And” between values parts separate entries of the source, which are not always exact repeats. Identical values can stand only once.

Experiments:
[1] = tested on: auricle of hairless mouse (HR-1, female); assay: External blood circulation enhancing action: vasodilatory effect (red spots) on auricle of hairless mouse; format: in vivo; design: key to Vasodilatory effect for hairless mouse (red spots, visual): ◯: clear red spots can be confirmed; Δ: weak red spots can be confirmed; x: no development of red spots; conditions: for Vasodilatory effect for hairless mouse (red spots, visual): applied to right ear; for Vasodilating effect: 5 wt % solution, solvents as in Tables 2 and 3
Description: The compound of each Example and capsaicin analog were compared for vasodilatory effect using auricle of hairless mouse. [Test method] A sample was applied to the right ear of hairless mouse (HR-1, female), and a control was applied to the left ear. Presence or absence of red spots development was visually evaluated, and evaluated according to the following indices. ◯: clear red spots can be confirmed Δ: weak red spots can be confirmed x: no development of red spots The samples were dissolved in liquid paraffin or ethanol. samples: Control: liquid paraffin or ethanol

[2] = Stability on contact with silica gel, yield (recovery rate) of PTLC purification as index; format: physicochemical
Description: Using vanillyl alcohol (1.70 g, 11.0 mmol) instead of piperonyl alcohol, and n-decanoic acid (1.72 g, 10 mmol) instead of 8-methylnonanoic acid in Example 1, a reaction similar to Example 1 was performed.
Using the yield (recovery rate) of purification by silica gel chromatography (PTLC) as an index, the stability of each Example compound was confirmed.

Row | SMILES | Vasodilatory effect for hairless mouse (red spots, visual) ([1]; 5 wt % in liquid paraffin) | Vasodilating effect [1] | Vasodilatory effect for hairless mouse (red spots, visual) ([1]; 5 wt % in ethanol) | Stability on purification by PTLC (contact with silica gel), in words [2] | Yield (recovery rate) after purification by PTLC, index of stability [2] | further results
1 | COc1ccc(COC(=O)CCCCCC(C)C)cc1 [compound C-1, 4-methoxybenzyl 7-methyloctanoate] | Δ | weak vasodilating effect | – | – | – | –
2 | CCOc1cc(COC(=O)CCCCCCC(C)C)ccc1O [compound H, 3-ethoxy-4-hydroxybenzyl 8-methylnonanoate] | ∘ | clear vasodilating effect, though the expression of the effect was slow | – | – | – | –
3 | CCC(C)CCCCCC(=O)OCc1ccc(OC)c(O)c1 (stereo not shown) [compound B-2, Isovanillyl 7-methyl Nonanoate] | x | – | ∘ | – | – | Vasodilatory effect in words ([1]; 5 wt % in ethanol): vasodilatory effect was observed; Vasodilatory effect in words ([1]; 5 wt % in ethanol, listed as Compound B-2): showed a vasodilating effect; Vasodilatory effect, note in words (onset, duration) ([1]; 5 wt % in liquid paraffin): did not show a vasodilating effect
4 | COc1cc(COC(=O)CCCC/C=C/C(C)C)ccc1OC(C)=O [compound G-1, 4-acetoxy-3-methoxybenzyl (E)-8-methyl-6-nonenoate] | ∘ | strong vasodilating effect | – | – | – | –
5 | COc1ccc(COC(=O)CCCCCC(C)C)cc1O [compound B-1, Isovanillyl 7-Methyloctanoate] | Δ | weak vasodilating effect | – | – | – | –
6 | COc1cc(COC(=O)CCCCCCC(C)C)ccc1O [dihydrocapsiate, 4-hydroxy-3-methoxybenzyl 8-methylnonanoate, reference compound] | ∘ | – | – | – | – | Vasodilatory effect for hairless mouse (red spots, visual) ([1]; 1 wt % in liquid paraffin): Δ
7 | COc1cc(CO)ccc1O [vanillyl alcohol, reference compound] | x | – | x | – | – | –
8 | COc1ccc(COC(=O)CCCCCCC(C)C)cc1OC [compound D, Veratryl 8-methylnonanoate] | x | did not show a vasodilating effect | – | not decomposed even after purification by PTLC | 89.1% | –
9 | COc1cc(COC(=O)CCCCCC(C)C)ccc1O [nordihydrocapsiate, 4-hydroxy-3-methoxybenzyl 7-methyl-octanoate, reference compound] | ∘ | – | – | – | – | Vasodilatory effect for hairless mouse (red spots, visual) ([1]; 1 wt % in liquid paraffin): Δ
10 | CCC(C)CCCCC(=O)OCc1ccc(OC)cc1 (stereo not shown) [compound C-2, 4-methoxybenzyl 6-methyloctanoate] | x | did not show a vasodilating effect | x | – | – | –
11 | CC(C)CCCCCCC(=O)OCc1ccc(O)cc1 [compound F, 4-hydroxybenzyl 8-methylnonanoate] | Δ | weak vasodilating effect | – | – | – | –
12 | COc1cc(CNC(=O)CCCC/C=C/C(C)C)ccc1O [capsaicin, reference compound] | ∘ | – | ∘ | – | – | Vasodilatory effect for hairless mouse (red spots, visual) ([1]; 1 wt % in liquid paraffin): ∘
13 | CC(C)CCCCCC(=O)OCc1ccc2c(c1)OCO2 [compound A-1, Piperonyl 7-methyloctanoate] | x | did not show a vasodilating effect | x | – | – | –
14 | COc1ccc(COC(=O)CCCCCCC(C)C)cc1 [compound C, 4-methoxybenzyl 8-methylnonanoate] | ∘ | strong vasodilating effect | – | not decomposed even after purification by PTLC | 90.2% | –
15 | CC(C)CCCCC(=O)OCc1ccc2c(c1)OCO2 [compound A-2, Piperonyl 6-methylheptanoate] | x | did not show a vasodilating effect | x | – | – | –
16 | CCCCCCCCCC(=O)OCc1ccc(O)c(OC)c1 [vanillyl decanoate, reference compound] | – | – | – | decomposed by the contact with silica gel | 43.1% | –
17 | COc1cc(COC(=O)CCCC/C=C/C(C)C)ccc1O [capsiate, 4-hydroxy-3-methoxybenzyl (E)-8-methyl-6-nonenoate, reference compound] | ∘ | – | ∘ | – | – | Vasodilatory effect for hairless mouse (red spots, visual) ([1]; 1 wt % in liquid paraffin): Δ
18 | COc1ccc(COC(=O)CCCCCCC(C)C)cc1O [compound B, Isovanillyl 8-methylnonanoate] | ∘ | strong vasodilating effect | – | not decomposed even after purification by PTLC | 81.0% | –
19 | COc1cc(COC(=O)CCCCCCC(C)C)ccc1OC(C)=O [compound G, 4-acetoxy-3-methoxybenzyl 8-methylnonanoate] | ∘ | strong vasodilating effect | – | not decomposed even after purification by PTLC | 82.9% and 85.7% | –
20 | CC(C)CCCCCCC(=O)OCc1ccc2c(c1)OCO2 [compound A, Piperonyl 8-methylnonanoate] | Δ | weak vasodilating effect | – | stabler than vanillyl decanoate even upon contact with silica gel | 84.3% | –
